{"source": "patent US8536113B2", "about": "“EGFR binding peptides and uses thereof” (Janssen Biotech, Inc., priority 2006, dated 2013)", "key": {"[1]": {"molecular_target": "T1, complex between EGF and sEGFR-MMB (Homo sapiens, UniProt P00533)", "T1 construct": "made in house", "test": "Phage ELISA binding studies on P190, receptor with added EGF", "conditions": "Table 10; listed as pIX-190", "protocol": "The plates were held overnight at room temperature, washed twice with TBST (0.5M Tris Base, 9% NaCl, 0.05% tween, pH 7.6), and loaded with 200 μL per well of Starting Block (Pierce). […] The plates were held at room temperature for 1.5 hours for blocking. Plates were then washed twice with TBST and phage were added. The phage solutions were crude phage supernatant from overnight cultures diluted four-fold with Starting Block. After a one-hour incubation, the plates were washed thrice with TBST and 100 μL of a 1:5000 dilution of phage binding antibody conjugate (α-M13-HRP) was added to the wells. EGF was added if applicable. After a one-hour incubation the plates were washed five times with TBST, 100 μL of POD (BM Chemiluminescence ELISA substrate; Roche Applied Science) was added, and chemiluminescence recorded."}, "A431 cells [2]": {"tested_on": "A431 cells", "test": "Flow cytometry of phage binding to tumor cells", "format": "cell-based, human", "protocol": "(§1) Flow cytometry. To evaluate whether the selected peptides from phage display can bind to tumor cells that overexpress EGFR, A431 cells (epidermoid cancer) or an EGFR negative tumor cells, MCF-7 (breast carcinoma) were tested in a flow cytometry assay using fluorescence detection (FACS). For P145, PP146 and their control phage, 2.5×10^5 A431 cells were resuspended in 25 μl of flow staining buffer (dPBS with 1% BSA, 0.09% sodium azide) and incubated with 25 μl of phage clones for 1 hour at 4° C. […] Cells were washed two times with flow staining buffer and then incubated with 0.5 μg of mouse anti M13/fd/F1 filamentous phages monoclonal antibody conjugated to FITC (Fitzgerald Industries International, Inc. Concord, Mass.) for 45 minutes at 4° C. Cells were washed two times with flow staining buffer and acquired by FACSCalibur (BD, Franklin Lakes, N.J.) to detect bound phages on tumor cell surface. Results.\n(§2) A431 cells (epidermoid cancer) which overexpress EGFR and EGFR-negative tumor cells, MCF-7 (breast carcinoma) were tested in a flow cytometry assay. Tumor cells (A431 and MCF-7) were harvested with 0.25% tyrpsin-EDTA and washed twice with FACS staining buffer (dPBS with 1% BSA, 0.09% sodium azide). […] After binding at 4° C., cells were washed twice with FACS staining buffer to remove unbound phage and then incubated with 0.5 μg of mouse anti-M13 monoclonal antibody conjugated to FITC (Fitzgerald Industries International, Inc. Concord, Mass.) for 1 hour at 4° C. Mouse anti-M13-FITC incubated with cells without phage was used as background binding. Cells were washed twice with FACS staining buffer to remove unbound detection antibody."}, "MCF-7": {"tested_on": "MCF-7", "test": "Flow cytometry of phage binding to EGFR negative tumor cells", "format": "cell-based, human", "conditions": "EGFR positive versus EGFR negative cells", "protocol": "as §1, §2"}, "A431 cells [3]": {"tested_on": "A431 cells", "test": "Internalization of biotinylated P190 by FACS and confocal microscopy", "format": "cell-based, human", "conditions": "37° C.", "quoted_text": "The complexes were added to A431 cells that had been pre-incubated in PBS with or without EGF for 15 minutes and then incubated for an additional hour. Cells were washed to remove unbound complexes and split into two separate tubes, one of which stayed at 4° C. and one of which was incubated for 2 hours at 37° C. to promote internalization. Again, cells were washed and further split into 2 groups with one tube from each temperature undergoing acid wash treatment to remove surface-bound biotinylated peptide. Cells were washed again in FACS staining buffer and peptide binding and internalization were acquired by FACSCalibur (BD, Franklin Lakes, N.J.) and analyzed by Cell Quest software. The remaining cells from both 4° C. and 37° C. without acid wash after FACS analysis were centrifuged and resuspended with 50 μL mounting medium containing DAPI (Vector Laboratory Inc. Burlingame, Calif.). Ten μL of cells in mounting medium were transferred to a glass slide, covered with thin glass slips and examined by confocal microscopy."}}}
{"sequence": "DPCTWEVWGRECLQ [P190]", "values": [{"measurement": "Binds EGF + SEGFR-MMB Complex", "setting": "[1]", "result": "increased in the presence of EGF or TGF-a"}, {"measurement": "phage binding to A431 cells in the presence of EGF", "setting": "A431 cells [2]", "result": "increased"}, {"measurement": "phage binding to A431 cells in the presence of EGF and cetuximab", "setting": "A431 cells [2]", "result": "decreases"}, {"measurement": "binding to A431 compared with MCF-7", "setting": "MCF-7", "result": "bound more effectively to A431 cells"}, {"measurement": "binding to A431 compared with MCF-7", "setting": "MCF-7; listed as pIII-190", "result": "bind to A431 but not to MCF-7"}, {"measurement": "binding to A431 compared with MCF-7", "setting": "MCF-7; listed as pIX-190", "result": "bind to A431 but not to MCF-7"}, {"measurement": "internalization into EGFR^+ cells", "setting": "A431 cells [3]", "result": "is internalized"}]}
